In assay [1] the test system is Jurkat/NFAT-Re Luc cells. Description: Jurkat/NFAT-Re Luc T cell activation by Anti-CD3/CD28, luciferase reporter, after pre-incubation with Globo series ceramides. The class given is cell-based, human. To be noted: various concentrations of ceramide, pre-incubated 18-24 hours; 6 hours activation; FIG. 2. The method, then: Jurkat/NFAT-Re Luc cells (Promega, Inc., Cat# G7102) were pre-incubated with or without various concentrations of chemically synthesized Globo H ceramide (GHCer) or SSEA-4 ceramide (SSEA4Cer) for 18-24 hours in 48-well culture plate. Cells were collected and transferred to white, flat-bottom 96-well assay plates (Greiner Bio-One GmbH, Cat#655073) coated overnight with Anti-human CD3 (100 ng/well) (BioLegend, Inc. Cat#317326), and Anti-human CD28 (300 ng/well) (BioLegend, Inc. Cat#302914) in 37° C. incubator for a 6 hours activation. Assay plates were removed from the incubator and equilibrated to room temperature (22-25° C.) for 15 minutes. 75 μL of Bio-Glo™ Luciferase Assay Reagent (Promega, Inc. Cat#G7940) was added and incubated the plates at RT for 15 minutes. Luminescence was measured using a microplate reader SpectraMax L (Molecular Devices, LLC.). The Photomultiplier Tube (PMT) sensitivity was set as autorange and calibrated at 570 nm. Fold of induction was calculated by RLUactivated/RLUunstimulated.

Assay [2] has as its system PD-1/PD-L1 engagement inhibited TCR signaling (PD-1 Effector Cells, PD-L1+ target cells). Description: PD-1/PD-L1 Blockade Bioassay, GHCer treated effector cells with Keytruda or Tecentriq. Type of assay: cell-based. As to conditions: 6 hours, FIG. 7; for Release of PD-1/PD-L1 engagement inhibited TCR signaling by checkpoint antibody: 2 μM antibody, effector cells with 40 μM GHCer. The protocol:
(§1) 40 μM GHCer was incubated with PD-1 Effector Cells (PD-1/PD-L1 Blockade Bioassay Kit, Promega, Cat# J3011), then incubate for 24 hours at 37° C. with 5% CO2. PD-L1+ target cells were seeded in 96 well plate and incubate for 24 hours at 37° C. with 5% CO2. The growth medium from the plates coated PD-L+ cells was replaced by the GHCer/Effector cells R×n with 2 μM Keytruda, the Anti-PD-1 mAb, or 2 lμM Tecentriq, the Anti-PD-L1 mAb, and incubate for 6 hours at 37° C. with 5% CO2. Plate was removed to ambient temperature for 10 mins. Bio-Glo™ Reagent was added and incubate for 15 mins then read by luminometer.

Assay [3] deals with PD-1 Effector Cells with PD-L1+ target cells (TCR signaling). Description: PD-1/PD-L1 Blockade Bioassay with GHCer or SSEA4Cer treated PD-1 Effector Cells. Type of assay: cell-based. As to conditions: various concentration of ceramide on PD-1 Effector Cells 24 hours, 6 hours with PD-L1+ cells; FIG. 6 as printed. The protocol: Various concentration of GHCer or SSEA4Cer was incubated with PD-1 Effector Cells (PD-1/PD-L1 Blockade Bioassay Kit, Promega, Cat# J3011), then incubate for 24 hours at 37° C. PD-L+ target cells (PD-1/PD-L1 Blockade Bioassay Kit, Promega, Cat# J3011) were seeded in 96 well plate and incubate for 24 hours at 37° C. with 5% CO2. The growth medium from the plate coated PD- L1+ cells was replaced by the GHCer or SSEA4Cer/Effector cells R×n and incubated for 6 hours. Plate was removed to ambient temperature for 10 mins. Bio-Glo™ Reagent was added and incubate for 15 mins then read by luminometer.

Assay [4] deals with PD-1/PD-L1 engagement inhibited TCR signaling (PD-1 Effector Cells, PD-L1+ target cells). Kind of assay: PD-1/PD-L1 Blockade Bioassay, SSEA4Cer treated effector cells with Keytruda or Tecentriq. Type of assay: cell-based. As to conditions: 6 hours, FIG. 8; for Release of PD-1/PD-L1 engagement inhibited TCR signaling by checkpoint antibody: 2 μM antibody, effector cells with 40 μM SSEA4Cer. The protocol: as §1, with “SSEA4Cer” for “GHCer”, “SSEA4Cer/Effector” for “GHCer/Effector”, “μM” for “lμM”

The subject of assay [5] is SSEA4Cer and PD-1/PD-L1 engagement inhibited TCR signaling (PD-1 Effector Cells, PD-L1+ target cells). Kind of assay: PD-1/PD-L1 Blockade Bioassay, SSEA4Cer pre-incubated with OBI-898, combined with Keytruda or Tecentriq. Type of assay: cell-based. As to conditions: 5 μM OBI-898 with SSEA4Cer 4 hours; 2 μM Keytruda or 2 μM Tecentriq, 6 hours; FIG. 11 as printed. The protocol:
SSEA4Cer were incubated with 5 μM OBI-898 in assay medium at 37° C. for 4 hours. Samples were centrifuged at 8000×g for 5 minutes twice and supernatant were harvested and incubated with PD-1 Effector Cells for 24 hours. PD-L+ target cells were seeded in 96 well plate and incubate for 24 hours at 37° C. with 5% CO2. The growth medium from the plates coated PD- L1 cells was replaced by the SSEA4Cer/Effector cells R×n with 2 μM Keytruda or 2 μM Tecentriq and incubate for 6 hours at 37° C. with 5% CO2. Plate was removed to ambient temperature for 10 mins. Bio-Glo™ Reagent was added and incubate for 15 mins then read by luminometer.

The subject of assay [6] is GHCer and PD-1/PD-L1 engagement inhibited TCR signaling (PD-1 Effector Cells, PD-L1+ target cells). Kind of assay: PD-1/PD-L1 Blockade Bioassay, GHCer pre-incubated with OBI-888, combined with Keytruda or Tecentriq. The class given is cell-based. As to conditions: 10 μM OBI-888 with GHCer 4 hours; 2 μM Keytruda or 2 μM Tecentriq, 6 hours; FIG. 10 as printed. The method, then: GHCer were incubated with 10 μM OBI-888 in assay medium containing 99% RPMI 1640/1% FBS (PD-1/PD-L1 Blockade Bioassay Kit, Promega, Cat# J3011) at 37° C. for 4 hours. Samples were centrifuged at 8000×g for 5 minutes twice and supernatant were harvested and incubated with PD-1 Effector Cells for 24 hours. PD-L1+ target cells were seeded in 96 well plate and incubate for 24 hours at 37° C. with 5% CO2. The growth medium from the plates coated PD- L1 cells was replaced by the GHCer/Effector cells R×n with 2 μM Keytruda or 2 μM Tecentriq and incubate for 6 hours at 37° C. with 5% CO2. Plate was removed to ambient temperature for 10 mins. Bio-Glo™ Reagent was added and incubate for 15 mins then read by luminometer.

This note sets out measurements from US20190389963A1, “COMBINATION THERAPY BY USING ANTI-GLOBO H OR ANTI-SSEA-4 ANTIBODY WITH ANTI-NEGATIVE IMMUNE CHECK POINTS ANTIBODY” (OBI Pharma, Inc., priority 2018, published 2019).

Globo H ceramide [GHCer]: the “Jurkat T cell activation to Anti-CD3/28 stimulation (fold of induction, RLUactivated/RLUunstimulated)” value in assay [1] was “suppress the Jurkat T cell activation to Anti-CD3/28 stimulation in a dose dependent manner”. Further, the “Effect of GHCer incorporation on Keytruda or Tecentriq released TCR signaling” value in assay [2] (40 μM GHCer on effector cells 24 hours, 2 μM Keytruda or 2 lμM Tecentriq) is on record as “reduced Keytruda or Tecentriq released PD-1/PD-L1 engagement inhibited TCR signaling”. For the same substance, the “Suppression of TCR activation signaling pathway together with PD-1/PD-L1 engagement” value in assay [3] is “acts synergistically with PD-1/PD-L1 engagement to suppress the TCR activation signaling pathway”.

With SSEA-4 ceramide [SSEA4Cer], the “Jurkat T cell activation to Anti-CD3/28 stimulation (fold of induction, RLUactivated/RLUunstimulated)” value in assay [1] is “suppress the Jurkat T cell activation to Anti-CD3/28 stimulation in a dose dependent manner”. For the same substance, in assay [3], the “Suppression of TCR activation signaling pathway together with PD-1/PD-L1 engagement” value was “acts synergistically with PD-1/PD-L1 engagement to suppress the TCR activation signaling pathway”. In addition, in assay [4] (40 μM SSEA4Cer on effector cells 24 hours, 2 μM Keytruda or 2 μM Tecentriq), the “Effect of SSEA4Cer incorporation on Keytruda or Tecentriq released TCR signaling” value was “reduced Keytruda or Tecentriq released PD-1/PD-L1 engagement inhibited TCR signaling”.

“Tecentriq: the Anti-PD-L1 mAb; Roche, Lot H0125B11”: the “Release of PD-1/PD-L1 engagement inhibited TCR signaling by checkpoint antibody” value in assay [2] and in assay [4] was “released PD-1/PD-L1 engagement inhibited TCR signaling” throughout. The “Rescue of SSEA4Cer and PD-1/PD-L1 engagement inhibited TCR signaling by combination” value in assay [5] is reported as “synergistically with Keytruda or Tecentriq”. In addition, the “Rescue of GHCer and PD-1/PD-L1 engagement inhibited TCR signaling by combination” value in assay [6] was “synergistically with Keytruda or Tecentriq”.

Regarding “Keytruda: the Anti-PD-1 mAb; MSD Ireland, Lot 7302614A13”, the “Release of PD-1/PD-L1 engagement inhibited TCR signaling by checkpoint antibody” value in assay [2] and in assay [4] was “released PD-1/PD-L1 engagement inhibited TCR signaling” in each case. Moreover, in assay [5], the “Rescue of SSEA4Cer and PD-1/PD-L1 engagement inhibited TCR signaling by combination” value is on record as “acts synergistically with Keytruda”. Moreover, the “Rescue of GHCer and PD-1/PD-L1 engagement inhibited TCR signaling by combination” value in assay [6] is reported as “acts synergistically with Keytruda”.
